Structures can show the parent of a compound that is named as a salt. Where two headings read alike, the source gives them in different places.
Experiments:
BoNT/A LC1-429 [1] = target: T1, BoNT/A LC1-429 (Clostridium botulinum, UniProt P0DPI1); test: biochemical
BoNT/A LC1-429 [2] = target: T1, BoNT/A LC1-429; test: biochemical; details: BoNT/A Ki (nM)

T1 sequence (P0DPI1 1-429, added parts left off): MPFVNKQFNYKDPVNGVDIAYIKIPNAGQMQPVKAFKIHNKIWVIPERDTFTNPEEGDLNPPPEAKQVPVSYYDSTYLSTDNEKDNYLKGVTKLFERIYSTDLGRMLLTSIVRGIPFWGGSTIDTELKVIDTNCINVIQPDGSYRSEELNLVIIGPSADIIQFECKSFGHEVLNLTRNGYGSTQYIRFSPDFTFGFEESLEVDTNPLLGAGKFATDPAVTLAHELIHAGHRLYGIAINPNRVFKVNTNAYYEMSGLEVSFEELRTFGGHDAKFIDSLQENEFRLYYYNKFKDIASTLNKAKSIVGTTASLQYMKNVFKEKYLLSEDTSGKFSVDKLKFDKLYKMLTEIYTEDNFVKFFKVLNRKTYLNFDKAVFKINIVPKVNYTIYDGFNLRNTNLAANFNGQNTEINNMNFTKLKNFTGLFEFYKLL

CCO[C@H](CC(=O)NO)[C@H](Cc1ccccc1)c1ccc(F)cc1 [Example 1-1, (3R,4R)-3-ethoxy-4-(4-fluorophenyl)-N-hydroxy-5-phenylpentanamide]
Ki (BoNT/A LC1-429 [1]): 38.5 nM

CCO[C@H](CC(=O)NO)[C@H](Cc1cccc(Br)c1)c1ccc(F)cc1 [Example 1-2, (3R,4R)-5-(3-bromophenyl)-3-ethoxy-4-(4-fluorophenyl)-N-hydroxypentanamide]
Ki (BoNT/A LC1-429 [1]): 154 nM

CCO[C@H](CC(=O)NO)[C@H](Cc1ccc(Br)cc1)c1ccc(F)cc1 [Example 1-4, (3R,4R)-5-(4-bromophenyl)-3-ethoxy-4-(4-fluorophenyl)-N-hydroxypentanamide]
Ki (BoNT/A LC1-429 [1]): 6.8 nM

C=Cc1ccc(C[C@H](c2ccc(F)cc2)[C@@H](CC(=O)NO)OCC)cc1 [Example 1-5, (3R,4R)-3-ethoxy-4-(4-fluorophenyl)-N-hydroxy-5-(4-vinylphenyl)pentanamide]
Ki (BoNT/A LC1-429 [1]): 33.5 nM

CCO[C@H](CC(=O)NO)[C@H](Cc1ccc(CC)cc1)c1ccc(F)cc1 [Example 1-6, (3R,4R)-3-ethoxy-5-(4-ethylphenyl)-4-(4-fluorophenyl)-N-hydroxypentanamide]
Ki (BoNT/A LC1-429 [1]): 91.5 nM

CCO[C@H](CC(=O)NO)[C@H](Cc1ccc(C(=O)NC)cc1)c1ccc(F)cc1 [Example 1-7]
Ki (BoNT/A LC1-429 [1]): 1220 nM

CCO[C@H](CC(=O)NO)[C@H](Cc1ccc(C(=O)N(C)C)cc1)c1ccc(F)cc1 [Example 1-8, 4-((2R,3R)-3-ethoxy-2-(4-fluorophenyl)-5-(hydroxyamino)-5-oxopentyl)-N,N-dimethylbenzamide]
Ki (BoNT/A LC1-429 [1]): 4350 nM

CCO[C@H](CC(=O)NO)[C@H](Cc1ccc(C(=O)O)cc1)c1ccc(F)cc1 [Example 1-10, 4-((2R,3R)-3-ethoxy-2-(4-fluorophenyl)-5-(hydroxyamino)-5-oxopentyl)benzoic acid]
Ki (BoNT/A LC1-429 [1]): 23300 nM

CCO[C@H](CC(=O)NO)[C@H](Cc1cccc(-c2ccncc2)c1)c1ccc(F)cc1 [Example 1-11, (3R,4R)-3-ethoxy-4-(4-fluorophenyl)-N-hydroxy-5-(3-(pyridin-4-yl)phenyl)pentanamide]
Ki (BoNT/A LC1-429 [1]): 1060 nM

CCO[C@H](CC(=O)NO)[C@H](Cc1ccc(-c2ccncc2)cc1)c1ccc(F)cc1 [Example 1-12, (3R,4R)-3-ethoxy-4-(4-fluorophenyl)-N-hydroxy-5-(4-(pyridin-4-yl)phenyl)pentanamide]
Ki (BoNT/A LC1-429 [1]): 178 nM

CCO[C@H](CC(=O)NO)[C@H](Cc1ccc(-c2cccnc2)cc1)c1ccc(F)cc1 [Example 1-13, (3R,4R)-3-ethoxy-4-(4-fluorophenyl)-N-hydroxy-5-(4-(pyridin-3-yl)phenyl)pentanamide]
Ki (BoNT/A LC1-429 [1]): 147 nM

CCO[C@H](CC(=O)NO)[C@H](Cc1ccc(-c2cncc(C)c2)cc1)c1ccc(F)cc1 [Example 1-14, (3R,4R)-3-ethoxy-4-(4-fluorophenyl)-N-hydroxy-5-(4-(5-methylpyridin-3-yl)phenyl)pentanamide]
Ki (BoNT/A LC1-429 [1]): 158 nM

O=C(C[C@@H](OCCO)[C@H](Cc1ccc(Cl)cc1)c1ccc(F)cc1F)NO [Example 6-18, (3R,4R)-5-(4-chlorophenyl)-4-(2,4-difluorophenyl)-N-hydroxy-3-(2-hydroxyethoxy)pentanamide]
Ki (BoNT/A LC1-429 [2]): 8.75 nM

O=C(C[C@@H](OCCCO)[C@H](Cc1ccc(Cl)cc1)c1ccc(F)cc1F)NO [Example 6-19, (3R,4R)-5-(4-chlorophenyl)-4-(2,4-difluorophenyl)-N-hydroxy-3-(3-hydroxypropoxy)pentanamide]
Ki (BoNT/A LC1-429 [2]): 1.45 nM

CO[C@H](CC(=O)NO)[C@H](Cc1ccc(Cl)cc1)c1ccc(F)cc1F [Example 6-20, (3R,4R)-5-(4-chlorophenyl)-4-(2,4-difluorophenyl)-N-hydroxy-3-methoxypentanamide potassium salt]
Ki (BoNT/A LC1-429 [2]): 8.3 nM

CCO[C@H](CC(=O)NO)[C@H](Cc1ccc(Cl)cc1)c1ccc(F)cc1F [Example 6-21, (3R,4R)-5-(4-chlorophenyl)-4-(2,4-difluorophenyl)-3-ethoxy-N-hydroxypentanamide potassium salt]
Ki (BoNT/A LC1-429 [2]): 12 nM

CO[C@H](CC(=O)NO)[C@H](Cc1ccc(Cl)cc1C)c1ccc(F)cc1F [Example 6-22, (3R,4R)-5-(4-chloro-2-methylphenyl)-4-(2,4-difluorophenyl)-N-hydroxy-3-methoxypentanamide potassium salt]
Ki (BoNT/A LC1-429 [2]): 6.7 nM

CO[C@H](CC(=O)NO)[C@H](Cc1ccc(Cl)cc1C)c1ccc(Br)cc1F [Example 6-23, (3R,4R)-4-(4-bromo-2-fluorophenyl)-5-(4-chloro-2-methylphenyl)-N-hydroxy-3-methoxypentanamide]
Ki (BoNT/A LC1-429 [2]): 1.94 nM

CCO[C@H](CC(=O)NO)[C@H](Cc1ccc(Cl)cc1)c1ccc(Cl)c(Br)c1 [Example 6-24, (3R,4R)-4-(3-bromo-4-chlorophenyl)-5-(4-chlorophenyl)-3-ethoxy-N-hydroxypentanamide]
Ki (BoNT/A LC1-429 [2]): 8.1 nM

CC(C)(C)OC(=O)NCCCO[C@H](CC(=O)NO)[C@H](Cc1ccc(Cl)cc1)c1ccc(F)cc1F [Example 6-25, tert-butyl (3-(((3R,4R)-5-(4-chlorophenyl)-4-(2,4-difluorophenyl)-1-(hydroxyamino)-1-oxopentan-3-yl)oxy)propyl)carbamate]
Ki (BoNT/A LC1-429 [2]): > 150000 nM

NCCCO[C@H](CC(=O)NO)[C@H](Cc1ccc(Cl)cc1)c1ccc(F)cc1F [Example 6-26, (3R,4R)-3-(3-aminopropoxy)-5-(4-chlorophenyl)-4-(2,4-difluorophenyl)-N-hydroxypentanamide]
Ki (BoNT/A LC1-429 [2]): 55000 nM

O=C(O)CCO[C@H](CC(=O)NO)[C@H](Cc1ccc(Cl)cc1)c1ccc(F)cc1F [Example 6-27, 3-(((3R,4R)-5-(4-chlorophenyl)-4-(2,4-difluorophenyl)-1-(hydroxyamino)-1-oxopentan-3-yl)oxy)propanoic acid]
Ki (BoNT/A LC1-429 [2]): 361 nM

— patent US9505710B2 (priority 2015, dated 2016)
